Structures can show the parent of a compound that is named as a salt.

Results on two compounds are retold here after paper PMC5360416 (Journal of pharmaceutical sciences, 2014).

Series [1] in a line: Short-term lung toxicity, bronchoalveolar lavage. Conditions: 12 hrs. The format is in vivo, rat.
Series [2] can be described thus: Pharmacokinetics in adult male SD rats. It is filed as in vivo, rat. Conditions: 6 mg/kg; for AUC(0-inf) / Cmax: male, Sprague-Dawley, rat, plasma.
The conditions of series [3]: stated without reference, cited from earlier work.
The next series relates to MCT induced PAH rats. The series is described as follows: Acute hemodynamic efficacy in MCT induced PAH rats. It is filed as in vivo, rat. Conditions: 3 mg/kg.
The mark [4] stands for this setting: 0.1% SDS, compared with CAR-micelles and plain drug.

The term cell viability denotes the share of living cells, or the viability signal relative to a control. Higher therefore signals less harm to the cells. For `CCCCCCCCCCCCOS(=O)(=O)[O-].[Na+]` [SDS, sodium dodecyl sulfate], in series [1] (setting [4]), the “ALP level in BAL fluid” value is recorded as “elevated levels” and the “LDH level in BAL fluid” value is “elevated levels”. In addition, the “wet lung weight compared to saline treated rats” value in series [1] (intratracheal, CAR-micelles equivalent to 6 mg/kg fasudil, SDS 0.1%) is listed as “two-fold”. Besides, the cell viability in the series on rat PASM cells is about 16%.

One may read the AUC(0-inf) as the area under the concentration-time curve extrapolated to infinity. The low end stands for less exposure, the high end for more exposure. Usually Cmax stands for the peak of the concentration-time curve. For `O=S(=O)(c1cccc2cnccc12)N1CCCNCC1` [Fasudil, Fasudil hydrochloride], the results for the “time after which no plasma concentration was shown” value in series [2] (IT) and in series [2] (IV) were 6 h and 2 h, respectively. Moreover, the AUC(0-inf) was determined as 21700 ± 4080 ng·h/mL in series [2] (inhaled or intranasal) and 27600 ± 3910 ng·h/mL in series [2] (iv). In addition, the Cmax in series [2] (inhaled or intranasal) is 1450 ± 580 ng/mL; in series [2] (iv), 3780 ± 230 ng/mL. In addition, the solubility in methanol result in series [3] (methanol) is “moderately soluble”. Besides, the solubility in water in series [3] (water) was about 200 mg/mL. The “reduction in MPAP, IT versus IV” value in the series with MCT induced PAH rats (plain fasudil IT) is “more pronounced reduction in MPAP than IV fasudil”. Moreover, the “reduction in MSAP” value in the series on MCT induced PAH rats (plain fasudil IV and IT) is on record as “significant reduction”.
